Legend:
[1] = tested on: malignant melanoma cell line A375; test: MTT cell viability analysis (cytotoxicity), A375; assay type: cell-based; conditions: 24 hours, FIG. 1
Method: (§1) Pachastrissamine's cytotoxicity on a HaCaT cell line and a malignant melanoma cell line was researched through MTT cell viability analysis.
(§2) First, each of a HaCaT cell line (German Cancer Research, obtained from prof. N. Fuseni, Germany), and two kinds of malignant melanoma cell lines, B16F10 (B16) and A375 were inoculated into a DMEM (Dulbecco's Modified Eagle's Medium) culture medium added with 10% FBS (Thermo Fisher Scientific Inc.), 100 unit/ml penicillin, and 100 μg/ml streptomycin, and then cultured in a CO2 incubator (Form a Scientific, Inc.) (37° C., 5%).
(§3) The cultured HaCaT, B16F10, and A375 cells were plated onto a 96-well plate at a concentration of 5×10^4 cells/well, and cultured in a CO2 incubator (37° C., 5%) for 24 hours. The cells in respective wells were treated with pachastrissamine and phytosphingosine at various concentrations of 0, 0.9, 1.8, 3.7, 7.5, 10 μg/ml, and cultured in a CO2 incubator (37° C., 5%) for 24 hours. After the culturing, in a state where the culture medium existed, each well was added with 5 mg/ml MTT reagent at a concentration of 20 μl/[…], and cultured in an incubator for 2 hours. After 2 hours, the culture medium was removed, and each well was added with 150 μl of DMSO (dimethyl sulfoxide). Then, a spectrophotometer was used to measure the absorbance at 540 nm, thereby analyzing the cell viability. Herein, the cell viability was represented as a relative value with respect to 100% of cell viability in a control group not treated with pachastrissamine and phytosphingosine.

GSK3-beta / beta-catenin = test: Western blotting of pGSK3-beta, GSK3-beta, pCatenin and Catenin in HaCaT; assay type: cell-based, human; conditions: 30 minutes, FIG. 5A
Method: The pachastrissamine's effect on beta-catenin protein expression was researched. In the same manner as described in Example 1, a HaCaT cell line was cultured.

p-FoxO3a (Ser 253) = test: Western blotting of p-FoxO3a (Ser 253); assay type: cell-based; conditions: HaCaT, A375, B16F10, 10 μg/ml, FIGS. 4B, 4C
Method: In the same manner as described in Example 4-1, a HaCaT cell line and malignant melanoma cell lines (A375 and B16F10) were treated with pachastrissamine and phytosphingosine at a concentration of 10 μg/ml for 30 minutes and 60 minutes, respectively. Then, western blotting was carried out using p-FoxO3a (Ser 253) antibody.

beta-catenin = test: Beta-catenin protein in malignant melanoma cell line (FIG. 5B); assay type: cell-based
ERK and FoxO3a = test: Immunoprecipitation of ERK, binding between ERK and FoxO3a; assay type: cell-based, human; conditions: HaCaT; 10 μg/ml; 24 hours; anti-ERK immunoprecipitation; FIG. 4F
Method: In the same manner, a HaCaT cell line was treated with pachastrissamine, and immunoprecipitation was used to determine the degree of binding between ERK and FoxO3a, and the degree of FoxO3a ubiquitination caused by interaction. In order to carry out immunoprecipitation, the cells were plated on a 100 mm plate, and cultured in a CO2 incubator (37° C., 5%) for 24 hours. After about 12 hours of serum starvation, the cultured cell line was treated with 10 μg/ml of pachastrissamine for 24 hours. The cell line treated with pachastrissamine and another cell line not treated with pachastrissamine were resuspended in the RIPA buffer as described above, and then put on ice for 30 minutes so that the cells could be completely lysed. The lysate was centrifuged at 14000 rpm for 30 minutes, and the supernatant was collected. A BCA protein analysis kit (Pierce, Rockford, Ill.) was used to determine the concentration of each sample, and the samples in the same amount were added with anti-ERK antibody in the same amount, and reacted at 4° C. for 2 hours. Then, each of the samples was added with 10 μl of protein G-agarose (GenDEPOT) and reacted at 4° C. for 10 hours, and then centrifuged at 3000 rpm for 1 minute, washed with RIPA buffer, and centrifuged again. Then, the precipitated protein G-agarose was collected, and electrophoresis was carried out.

[2] = tested on: malignant melanoma cell line B16F10; test: MTT cell viability analysis (cytotoxicity), B16F10; assay type: cell-based; conditions: 24 hours, FIG. 1
Method: as §1, §2, §3

HaCaT cell line = test: MTT cell viability analysis (cytotoxicity), HaCaT; assay type: cell-based, human; conditions: 24 hours, FIG. 1
Method: as §1, §2, §3

FoxO3a = test: Immunocytochemistry of intracellular FoxO3a distribution; assay type: cell-based
Method: In order to carry out Immunocytochemistry analysis, cells were transferred to chamber slides, and cultured in a CO2 incubator (37° C., 5%) for 24 hours. After about 12 hours of serum starvation, the cultured cell lines were treated with 10 μg/ml of pachastrissamine for 24 hours. The cell lines treated with pachastrissamine were fixed with 100% methanol, and washed with PBS. Then, in order to make the cells permeable, the cell lines were reacted in a 0.5% Triton X-100 and washed with a PBS solution. Then, by using a solution including 10% FBS and 0.1% gelatin, blocking was carried out at room temperature for 1 hour, and FoxO3a antibody was reacted at 4° C. for 12 hours. After the reaction, the cells were washed with PBS, reacted with a secondary antibody of Alex488 (invitrogen) at room temperature, and washed with PBS again. Finally, for nuclear stain, the cells were reacted with DAPI and washed with PBS. The slide was washed with PBS, attached with glass coverslip, and analyzed through a microscope.
After the cells with or without over-expression of beta-catenin were treated with pachastrissamine, the distribution of intracellular FoxO3a protein was determined in the same manner as described in Example 4-3.

[3] = 0, 0.9, 1.8, 3.7, 7.5, 10 μg/ml
[4] = pachastrissamine 10 μg/ml, LiCl 300 nM

Structure (SMILES): CCCCCCCCCCCCCC[C@@H]1OC[C@H](N)[C@@H]1O [pachastrissamine]
- cell viability (number of surviving cells) with increasing concentration [1, 3]: the number of surviving cells was reduced
- cytotoxicity compared with phytosphingosine [1]: lower cytotoxicity than phytosphingosine
- beta-catenin protein degradation (GSK3-beta / beta-catenin; 10 μg/ml): induced the degradation of beta-catenin protein
- phosphorylation of GSK3-beta (GSK3-beta / beta-catenin; [4]): phosphorylation of GSK3-beta was inhibited
- phosphorylation of beta-catenin (GSK3-beta / beta-catenin; [4]): increasing the phosphorylation of beta-catenin
- amount of expressed p-FoxO3a after 30 minutes (p-FoxO3a (Ser 253); 30 minutes): reduced
- expression of p-FoxO3a after 60 minutes (p-FoxO3a (Ser 253); 60 minutes): increased an expression of p-FoxO3a
- beta-catenin protein degradation in malignant melanoma cell line (beta-catenin): can induce the degradation of beta-catenin protein
- degree of binding between ERK and FoxO3a (ERK and FoxO3a): significantly decreased
- cell viability (number of surviving cells) with increasing concentration [2, 3]: the number of surviving cells was reduced
- cytotoxicity compared with phytosphingosine [2]: lower cytotoxicity than phytosphingosine
- cell viability (number of surviving cells) with increasing concentration (HaCaT cell line; [3]): the number of surviving cells was reduced
- cytotoxicity compared with phytosphingosine (HaCaT cell line): lower cytotoxicity than phytosphingosine
- movement of FoxO3a protein to a nucleus (FoxO3a; 10 μg/ml, 24 hours, FIG. 4D): significantly increased
- distribution of intracellular FoxO3a protein in cells with over-expression of beta-catenin (FoxO3a; HaCaT with over-expression of beta-catenin (FoxO3a mostly in cytosol before treatment), FIG. 5D): moved into the nucleus again

Reference: US8609718B2, “Pharmaceutical composition used in treatment of hyperproliferative skin conditions and malignant melanomas comprising pachastrissamine as active ingredient” (Catholic University Industry Academy Cooperation Foundation, priority 2009, dated 2013)
